Peptide text beside a SMILES is read from it.

What is called logP is a log measure of how a compound divides between an organic and an aqueous phase. A low value points to a more hydrophilic compound. Regarding `COCCCc1ccccc1`, the logP was 2.7.

For `O=[N+]([O-])c1cnc2ccccc2c1`, the logP turned out to be 1.97.

Consider `Clc1cccc(C(Cl)(Cl)Cl)n1`, for which the logP was 3.41.

`O=C(O)CNc1ccccc1` gave a logP of 0.62.

`CCC(Br)(CC)C(=O)NC(N)=O` came in with a logP of 1.54.

Take `NS(=O)(=O)c1cc2c(cc1Cl)NC(CC1CCCC1)NS2(=O)=O` (configuration not stated): the logP was 1.27.

For `Nc1ccn(C2CC(O)C(CO)O2)c(=O)n1` (configuration not stated), the logP is -1.77.

`CC1=NCCN1CCO` displayed a logP of 0.04.

Turning to `CCCCC(CC)CN` (configuration not stated), the logP is 2.82.

In turn, `CCOP(=S)(OCC)SCn1c(=O)oc2cc(Cl)ccc21` showed a logP of 4.38.

For the molecule `CN(C)CCOC(=O)c1ccccc1`, the log partition coefficient (logP) was 2.06.

The molecule `CCCCC#N` showed a logP of 1.12.

`COC(=S)NCCn1c([N+](=O)[O-])cnc1C` registered a logP of 1.15.

For `CN(C)C(N(C)C)=S(I)c1ccc(S(=O)(=O)N(C)C)cc1` (configuration not stated), the logP was -0.81.

The molecule `O=NN(Cc1ccccc1)c1ccccc1` displayed a log partition coefficient (logP) of 3.38.

The molecule `CCN(CC)CCNC(=O)c1ccccc1OC` gave a logP of 1.98.

In turn, `COc1ccc(O)cc1` showed a lipophilicity (logP) of 1.58.

`CCCCCOC(N)=O` showed a logP of 1.35.

Turning to `Nc1nc(N)nc(-c2ccccc2Cl)n1`, the logP worked out at 1.19.

Take `Nc1ccc(C[C@H](N)C(=O)O)cc1`: the lipophilicity (logP) is -2.2.

For the molecule `O=C(O)C(c1ccc(-c2ccccc2)cc1)C(O)c1cccc(F)c1` (configuration not stated), the logP is 3.31.

On to `O=C1CN(N=Cc2ccc([N+](=O)[O-])o2)C(=O)N1`, for which the logP was -0.47.

For `Nc1nc(N)nc(-c2cccc(C(F)(F)F)c2)n1`, the logP was found to be 2.67.

Consider `O=Cc1ccccn1`, for which the logP was determined as 0.44.

Molecule `CCCc1nc2cccc(C)n2c(=O)c1CC` had a log partition coefficient (logP) of 2.37.

Turning to `c1cnc2ncncc2n1`, the logP is -0.58.

Take `CCOP(=S)(OCC)Oc1ccc(SC)cc1C`: the logP worked out at 4.16.

Molecule `N#CCc1ccc([N+](=O)[O-])cc1` came in with a log partition coefficient (logP) of 1.37.

On to `NC(=O)c1ccc(C(O)C(CO)NC(=O)C(Cl)Cl)cc1` (configuration not stated), for which the logP is -0.48.

`OCCCCc1cccnc1` displayed a logP of 0.92.

For `O=c1[nH]c2ccccc2o1`, the logP was found to be 1.16.

`CC(C)Cc1cc(C(=O)NN)ccn1` displayed a logP of 1.02. The logP values of the last two molecules are within 0.2 log units of each other.

`O=C(NC(CO)C(O)c1ccc([N+](=O)[O-])cc1)C(Br)Br` (configuration not stated) showed a logP of 1.36.

`Clc1cccc(Cl)c1`: the logP came out at 3.53.

In turn, `CCC(C)c1cc([N+](=O)[O-])cc(C(C)CC)c1O` (configuration not stated) yielded a logP of 4.8.

In turn, `c1ccc2c(c1)nnc1ccccc12` gave a lipophilicity (logP) of 2.4.

`N=C(N)NS(=O)(=O)c1ccc(N)cc1`: the logP was -1.22.

`Nc1cc(Cl)c(Cl)cc1N` had a log partition coefficient (logP) of 2.

On to `CCCCn1cnc2c(N)ncnc21`, for which the logP was determined as 1.25.

`OCCN1CCCCC1` registered a logP of 0.96.

For the molecule `Cc1cc(Cl)ccc1N=CN(C)C`, the logP came out at 2.89.

Consider `c1cocn1`, for which the logP was 0.12.

The molecule `O=NN(CCCl)C(=O)Nc1ccccc1` returned a logP of 2.49.

For `COP(=S)(OC)Oc1ccc([N+](=O)[O-])cc1`, the logP came to 2.86.

In turn, `O=C(Oc1ccccc1)n1cc(F)c(=O)[nH]c1=O` yielded a logP of 0.64.

`Oc1ccc(Cn2cc[nH]c2=S)cc1F` came in with a lipophilicity (logP) of 1.12.

In turn, `c1ccc2occc2c1` displayed a logP of 2.67.

Take `CCCCOc1ccc([N+](=O)[O-])cc1`: the logP turned out to be 3.5.

As for `CC(=O)NC(C(=O)NC(CCC(N)=O)C(N)=O)C(C)C` (stereo not drawn) (Ac-Val-Gln-NH2; configuration not given here), the logP is -1.82.

In turn, `O=C(O)COc1cccc(I)c1` returned a logP of 2.44.

Regarding `Cc1cccc(O)c1`, the logP was found to be 1.96.

In turn, `CCC(=O)OC1(C(=O)CCl)C(C)CC2C3CCC4=CC(=O)C=CC4(C)C3(Cl)C(O)CC21C` (configuration not stated) yielded a logP of 3.28.

In turn, `CCOc1cc(N)ccc1C(=O)O` had a logP of 0.99.

In turn, `OCCCl` registered a logP of 0.03.

`C[C@]12CC[C@H](O)C[C@H]1CC[C@@H]1[C@@H]2CC[C@]2(C)[C@@H](C3=CC(=O)OC3)CC[C@]12O` displayed a logP of 2.64.

Take `O=[N+]([O-])c1ccc(OCC(O)CNCC(O)COc2ccccc2)cc1` (configuration not stated): the logP stood at 2.62.

`NC(=O)c1ccc2[nH]ccc2c1` had a logP of 0.87.

In turn, `CN(C)/N=N/c1ccccc1CO` showed a logP of 1.73.

In turn, `O=C(Cn1c(=O)sc2ccc(Cl)cc21)N1CCN(CCO)CC1` came in with a lipophilicity (logP) of 1.04.

The molecule `OCCOc1ccccc1` returned a logP of 1.16.

With `CCCCCC(C)O` (configuration not stated), the logP worked out at 2.31.

Consider `Cc1ccnc(NS(=O)(=O)c2ccc(N)cc2)n1`, for which the log partition coefficient (logP) worked out at 0.14.

The molecule `CCCCCn1cnc2c(NC(C)=O)ncnc21` had a logP of 0.98.

`CC(C)CCO[N+](=O)[O-]` returned a logP of 2.84.

With `CC(C)(C)C(=O)C(Oc1ccc(Cl)cc1)n1cncn1` (configuration not stated), the lipophilicity (logP) came out at 2.77.

`O=C(O)c1ccc(N=C=S)cc1` returned a logP of 3.52.

The molecule `CC(C)Oc1ccc([N+](=O)[O-])cc1` came in with a logP of 2.8.

Take `CCOc1c(NS(=O)(=O)c2ccc(N)cc2)ncnc1OC`: the logP is 1.03.

Take `CCCCC(=O)OC`: the logP was found to be 1.96.

Molecule `CC(C)(N)Cc1ccc(Cl)cc1` yielded a logP of 2.6.

Consider `NS(=O)(=O)c1ccc(O)cc1`, for which the lipophilicity (logP) is 0.06.

With `NC(=O)OCCC1=C(N2CC2)C(=O)C(Br)=C(N2CC2)C1=O`, the logP came out at 0.68.

`BrCCBr` showed a logP of 1.96.

On to `ON=C1C=CC(=NO)C=C1`, for which the logP was found to be 1.49.

In the case of `O=C(O)COc1ccc(I)cc1`, the logP is 2.69.

As to `CCCCN(C)C`, the logP stood at 1.7.

`NS(=O)(=O)c1ccc([N+](=O)[O-])c(C(F)(F)F)c1` showed a logP of 1.73.

`CCCCC1(CC)C(=O)NC(=O)NC1=O`: the lipophilicity (logP) came to 1.73.

As to `N#CCC(=O)O`, the logP was -0.76.

`CCOC(=O)c1ccc(O)cc1` registered a logP of 2.47.

With `CC1=C(O)C(=O)c2ccccc2C1=O`, the lipophilicity (logP) came out at 1.2.

In turn, `CCOC(=O)c1cc2ccc(CC)cc2nn1` had a logP of 2.31.

The molecule `CON=C(C(=O)NC1C(=O)N2C(C(=O)OC(C)OC(C)=O)=C(COC(N)=O)CSC12)c1ccco1` (configuration not stated) returned a lipophilicity (logP) of 0.89.

`S=C=NCc1ccccc1`: the logP was 3.16.

As to `CCc1ccccc1C`, the logP was determined as 3.53.

Turning to `O=S(=O)(O)c1ccc(O)c2ccccc12`, the logP is -0.44.

`CC(=O)Nc1ccccc1Cl`: the lipophilicity (logP) stood at 1.28.

In the case of `COc1cccc(-c2cc3ccccn3c2)c1`, the logP amounted to 4.14.

Molecule `CC12CCC(=O)C=C1CCC1C2C(O)CC2(C)C1CCC2(O)C(=O)COC1OC(CO)C(O)C(O)C1O` (configuration not stated) gave a logP of 0.15.

Take `CC#N`: the logP is -0.34.

Molecule `CC1C(c2ccccc2)OCCN1N=O` (configuration not stated) displayed a logP of 2.09.

In the case of `NC(=O)Nc1cccc(Br)c1`, the logP was 2.08.

`O=C(Nc1ccccc1)Nc1ccc(Cl)c(Cl)c1` came in with a lipophilicity (logP) of 4.7.

`CCC(=O)Nc1ccc(Cl)c(Cl)c1` returned a logP of 3.07.

As for `FC(F)(F)Sc1ccccc1`, the logP is 3.57.

Turning to `CC(=O)NC1CC(=O)N(c2ccccc2)C1=O` (configuration not stated), the logP is -0.33.

`CC12CCC3C(CCC4CC(=O)CCC43C)C1CCC2=O` (configuration not stated) showed a logP of 3.6.

The values are drawn from the OPERA property sets (Mansouri et al. 2018).
